Laboratory results reported in ChEMBL document CHEMBL4002629, “Design, synthesis and biological evaluation of novel 3-substituted 4-anilino-coumarin derivatives as antitumor agents” (Bioorg Med Chem Lett, 2017).

Experiments:
Type in all cases: functional, cell-based
MCF7 = experiment: Antiproliferative activity against human MCF7 cells after 48 hrs by MTT assay; settings: MCF7, 48 h
HepG2 = experiment: Antiproliferative activity against human HepG2 cells after 48 hrs by MTT assay; settings: HepG2, 48 h
HCT-116 = experiment: Antiproliferative activity against human HCT116 cells after 48 hrs by MTT assay; settings: HCT-116, 48 h
PANC-1 = experiment: Antiproliferative activity against human PANC1 cells after 48 hrs by MTT assay; settings: PANC-1, 48 h

COc1ccc(-c2c(Nc3ccc(C)c(O)c3)c3ccc(O)cc3oc2=O)cc1
IC50 (MCF7): > 100 µM | IC50 (HepG2): > 75.3 µM

COc1ccc(-c2c(Nc3cc(OC)c(OC)c(OC)c3)c3ccccc3oc2=O)cc1
IC50 (MCF7): 82.3 µM | IC50 (HepG2): 77.3 µM | IC50 (HCT-116): 63.5 µM | IC50 (PANC-1): 77.6 µM

COc1ccc2c(Nc3cc(OC)c(OC)c(OC)c3)c(C(=O)C(F)(F)F)c(=O)oc2c1
IC50 (MCF7): 19.2 µM | IC50 (HepG2): 26.4 µM | IC50 (HCT-116): 17 µM | IC50 (PANC-1): 24.1 µM

COc1ccc(-c2c(Nc3ccc(F)cc3)c3ccccc3oc2=O)cc1
IC50 (MCF7): 38.5 µM | IC50 (HepG2): 35.5 µM | IC50 (HCT-116): 39.4 µM | IC50 (PANC-1): 32 µM

CCOc1ccc(Nc2c(-c3ccc(OC)cc3)c(=O)oc3ccccc23)cc1
IC50 (MCF7): 30.7 µM | IC50 (HepG2): 31.3 µM | IC50 (HCT-116): 29.5 µM | IC50 (PANC-1): 32.9 µM

CCOc1ccc(Nc2c(-c3ccc(OC)cc3)c(=O)oc3cc(O)ccc23)cc1
IC50 (MCF7): 32.5 µM | IC50 (HepG2): 36.5 µM | IC50 (HCT-116): 46.1 µM | IC50 (PANC-1): 43.6 µM

CCOc1ccc(Nc2c(-c3ccc(OC)cc3)c(=O)oc3cc(OC)ccc23)cc1
IC50 (MCF7): 24.3 µM | IC50 (HepG2): 31.2 µM | IC50 (HCT-116): 33 µM | IC50 (PANC-1): 36.1 µM

COc1ccc(-c2c(Nc3cc(OC)c(OC)c(OC)c3)c3ccc(O)cc3oc2=O)cc1
IC50 (MCF7): 56 µM | IC50 (HepG2): 49.6 µM | IC50 (HCT-116): 64.2 µM | IC50 (PANC-1): 63.9 µM

COc1ccc(-c2c(Nc3ccc(F)cc3)c3ccc(O)cc3oc2=O)cc1
IC50 (MCF7): 71.5 µM | IC50 (HepG2): 65.6 µM | IC50 (HCT-116): 66.1 µM | IC50 (PANC-1): 75 µM

COc1ccc(Nc2c(C(=O)C(F)(F)F)c(=O)oc3cc(OC)ccc23)cc1
IC50 (MCF7): 55.7 µM | IC50 (HepG2): 38.4 µM | IC50 (HCT-116): 61.2 µM | IC50 (PANC-1): 47.5 µM

COc1ccc(-c2c(Nc3cc(OC)c(OC)c(OC)c3)c3ccc(OC)cc3oc2=O)cc1
IC50 (MCF7): 89.5 µM | IC50 (HepG2): 84.3 µM

COc1ccc(-c2c(Nc3cccc(C(F)(F)F)c3)c3ccc(OC)cc3oc2=O)cc1
IC50 (MCF7): 36.2 µM | IC50 (HepG2): 57.2 µM | IC50 (HCT-116): 41.2 µM | IC50 (PANC-1): 39.5 µM

COc1ccc(-c2c(Nc3ccc(NC(C)=O)cc3)c3ccccc3oc2=O)cc1
IC50 (MCF7): > 100 µM | IC50 (HepG2): > 100 µM

COc1ccc(Nc2c(-c3ccc(OC)cc3)c(=O)oc3ccccc23)cc1
IC50 (MCF7): 34.6 µM | IC50 (HepG2): 35.2 µM | IC50 (HCT-116): 36.6 µM | IC50 (PANC-1): 37.5 µM

COc1ccc(-c2c(Nc3ccc(NC(C)=O)cc3)c3ccc(O)cc3oc2=O)cc1
IC50 (MCF7): > 100 µM | IC50 (HepG2): > 100 µM

COc1ccc2c(Nc3ccc4c(c3)OCO4)c(C(=O)C(F)(F)F)c(=O)oc2c1
IC50 (MCF7): 37.4 µM | IC50 (HepG2): 10.5 µM | IC50 (HCT-116): 12.5 µM | IC50 (PANC-1): 15.8 µM

O=c1[nH]cc(F)c(=O)[nH]1 [FLUOROURACIL]
IC50 (HCT-116): 38.3 µM | IC50 (PANC-1): 47.8 µM

COc1ccc(Nc2c(C(=O)C(F)(F)F)c(=O)oc3ccc(OC)cc23)cc1
IC50 (MCF7): > 100 µM | IC50 (HepG2): > 100 µM

COc1ccc(-c2c(Nc3ccc4c(c3)OCO4)c3ccccc3oc2=O)cc1
IC50 (MCF7): > 100 µM | IC50 (HepG2): > 100 µM
